Measurements reported in patent US12440451B2, “Compositions and methods using an epigenetic inhibitor” (DANA-FARBER CANCER INSTITUTE, INC., priority 2017, dated 2025).

Assays:
OT-I+ CD8+ T cells [1] = experiment: APC-free T cell activation with anti-CD3 and anti-CD28 antibodies, flow cytometry; assay type: cell-based, mouse; settings: anti-CD3 and anti-CD28 or BMDC+SIINFEKL activation; 7 days; relative to DMSO
Text: It was important to determine whether the observed effect of RGFP966 on CD8^+ T cells post-activation was due to the drug acting on T cells, on the antigen-presenting cells, or both. To do so, the effect of RGFP966 treatment on CD8^+ T cells activated was compared in parallel using either antigen-pulsed BMDCs or antibodies against CD3 and CD28. The latter method of activating T cells is free of APCs and allowed determination of whether the effect of RGFP966 required the presence of APCs.
96-well tissue culture plates were coated with 10 μg/ml α-CD3 antibodies overnight at 4° C., then washed with PBS prior to addition of OT-I^+ CD8^+ T cells (2×10^5/well) and α-CD28 antibody (2 μg/ml) (labeled as anti-CD3 and anti-CD28). OT-I^+ CD8^+ T cells from the same batch of cells were also activated in parallel on antigen-loaded BMDCs (labeled as BMDC+SIINFEKL (SEQ ID NO: 1)) were prepared as described above. T cells were activated for 7 days, with media changes on days 3 and 5, then collected for flow cytometry phenotype analysis.

other HDACs = settings: reported; cited from earlier work
OT-I+ CD8+ T cells [2] = experiment: proliferation of activated T cells (total number of live cells by flow cytometry); assay type: cell-based, mouse; settings: FIG. 3
Protocol: T cells treated with RGFP966 also show increased proliferation relative to untreated T cells. FIG. 3 is a bar chart the total number of live cells detected in flow cytometry for activated OT-I^+ CD8^+ T cells that have been treated with 10 μM, 1 μM RGFP966, and no RGFP966 (vehicle control).

B16-Ova cells = experiment: in vitro 51Cr release cytotoxicity assay of activated OT-I+ CD8+ T cells against target cells; assay type: cell-based, mouse; settings: for specific lysis of cells expressing target antigen: 4 hours co-incubation, FIG. 4A
Protocol: In order to functionally assess the phenotype of OT-I^+ CD8^+ T cells activated in the presence of RGFP966, the ability of the activated T cells to kill B16 melanoma tumor cell targets expressing the cognate SIINFEKL (SEQ ID NO: 1) antigen of the OT-I TCR was assayed. The B16-Ova cells were engineered to express chicken ovalbumin in their cytosol, and express SIINFEKL (SEQ ID NO: 1) on Kb MHC I molecules when treated with IFN-γ. In preparation for the cytotoxicity assay, B16-Ova cells were treated with 10 ng/ml IFN-γ for 48 hours prior to harvest and loading with ^51Cr radionuclide. After radiolabeling, B16-Ova cells were seeded into 96-well plates (5×10^3/well) and allowed to adhere for 1 hour prior to addition of CD8^+ effector cells. OT-I^+ CD8^+ T cells were activated as described above using SIINFEKL-pulsed BMDCs in the presence of 10 μM, 1 μM, or 0 μM RGFP966. After 7 days of activation, T cells were harvested, washed to remove the drug, and counted. OT-I^+ CD8^+ effector cells were added to the assay plates containing B16-Ova target cells at the indicated ratios: there was no drug present during the cytotoxicity assay. Specific killing of targets was assessed by measurement of 51Cr release into the culture supernatant 4 hours after co-culture. To verify that genetic ablation of HDAC3 functionally recapitulated the augmented cytotoxic effector phenotype of HDAC3 inhibition using RGFP966, HDAC3-KO T cells were generated from OT-I^+ CD8^+ Cas9^+ T cells as described above, and compared with RGFP966-treated T cells from the same batch in an in vitro cytotoxicity assay.

OT-I+ CD8+ T cells [3] = experiment: immunoblot time course of sorted CD8+ T cells after activation; assay type: cell-based, mouse; settings: 3 μM
Protocol: Analysis was first made on expression of HDAC3 and its known binding partners, global histone acetylation levels, and known regulatory transcription factors of CD8^+ T cell effector function across a time course of T cell activation in the absence or presence of the HDAC3 inhibitor RGFP966.
To do so, OT-I^+ CD8^+ T cells were activated in vitro for 7 days, as described in FIG. 1 and Example 1 above. Activated cells received either 0 μM or 3 μM of HDAC3 inhibitor RGF966. Sorted CD8^+ T cells from the in vitro co-cultures were then assessed for HDAC3 and various markers by immunoblot at 2, 22, 72, 120, and 168 hours after activation (see immunoblot of FIG. 9A). The markers assessed included: NCOR1 and NCOR2 (part of the HDAC3/NCOR complex): BCL-6, T-BET, and BLIMP-1 (markers of the BCL-6-5-bet pathway): GAPDH and LAMIN BI (protein loading controls): acetylated residues H3K9 and H3K27, and histone H3 (markers of histone H3 acetylation).

Nc1cc(F)ccc1NC(=O)/C=C/c1cnn(C/C=C/c2ccccc2)c1 [RGFP966]
T cell effector phenotype (CD25, granzyme B, IFN-γ, TNF-α, IL-2) (OT-I+ CD8+ T cells [1]): augmented their T cell effector phenotype across both methods of T cell activation | concentration range at which other HDACs are not inhibited (other HDACs): < 15 µM | T cell proliferation (total number of live cells) (OT-I+ CD8+ T cells [2]; 1 μM): increasing T cell proliferation over vehicle control | T cell proliferation (total number of live cells) (OT-I+ CD8+ T cells [2]; 10 μM): increasing T cell proliferation as compared to T cells treated with 1 μM RGFP966 | killing of cognate antigen-expressing target cells (B16-Ova cells; T cells activated in the presence of the drug, dose-dependent): kill cognate antigen-expressing target cells more effectively than untreated cells | cytotoxicity compared with control treatment (B16-Ova cells; T cells activated with 1 μM): modest but non-significant increase in cytotoxicity | specific lysis of cells expressing target antigen (B16-Ova cells; T cells activated with 1 μM): about 45% | specific lysis of cells expressing target antigen (B16-Ova cells; T cells activated with 10 μM): ~70% | levels of BCL-6 (OT-I+ CD8+ T cells [3]): no significant changes | levels of BLIMP-1 (PRDM1) (OT-I+ CD8+ T cells [3]): no significant changes | global histone acetylation at H3K9 (OT-I+ CD8+ T cells [3]; after 72 hours post-activation): persistently high after 72 hours | HDAC3 protein level (OT-I+ CD8+ T cells [3]; immunoblot 2-168 hours): does not result in loss of HDAC3 protein | expression of T-BET (TBX21) (OT-I+ CD8+ T cells [3]; relative to control-treated cells): increased in the drug-treated cells relative to control-treated cells | NCOR2 level (OT-I+ CD8+ T cells [3]; starting at 120 hours post-activation): almost completely absent
